# According to PubChem BioAssay AID1918995 (Molecular Pharmacology Branch, DTP, NCI, 2023):
# System: 324938-238-R-J1-PDC complex spheroid growth, % test/control
# Test: Anticancer human tumor 324938-238-R-J1-PDC patient-derived bladder carcinoma cell line growth inhibition [AhR]
# Settings: for IC50: curve of first compound; for viability, T/C: stronger effect = lower value
# In short: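 Agents were dosed in half-log steps down from roughly clinical Cmax, or from 10 microM where Cmax was unknown, alone and with AhR antagonists. Read-out: percent test/control growth of tumor spheroids containing HUVEC and MSC stromal cells.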
# [1] = second compound 0.1 µM, first compound 0.0316 µM
# [2] = second compound 0.1 µM, first compound 0.1 µM
# [3] = second compound 0.1 µM, first compound 0.316 µM
# [4] = second compound 0.1 µM, first compound 1 µM
# [5] = second compound 0.1 µM, first compound 3.16 µM
# [6] = second compound 0.1 µM, first compound 10 µM
# [7] = second compound 0.316 µM, first compound 0.0316 µM
# [8] = second compound 0.316 µM, first compound 0.1 µM
# [9] = second compound 0.316 µM, first compound 0.316 µM
# [10] = second compound 0.316 µM, first compound 1 µM
# [11] = second compound 0.316 µM, first compound 3.16 µM
# [12] = second compound 0.316 µM, first compound 10 µM
# [13] = second compound 1 µM, first compound 0.0316 µM
# [14] = second compound 1 µM, first compound 0.1 µM
# [15] = second compound 1 µM, first compound 0.316 µM
# [16] = second compound 1 µM, first compound 1 µM
# [17] = second compound 1 µM, first compound 3.16 µM
# [18] = second compound 1 µM, first compound 10 µM
# [19] = second compound 3.16 µM, first compound 0.0316 µM
# [20] = second compound 3.16 µM, first compound 0.1 µM
# [21] = second compound 3.16 µM, first compound 0.316 µM
# [22] = second compound 3.16 µM, first compound 1 µM
# [23] = second compound 3.16 µM, first compound 3.16 µM
# [24] = second compound 3.16 µM, first compound 10 µM
# [25] = second compound 10 µM, first compound 0.0316 µM
# [26] = second compound 10 µM, first compound 0.1 µM
# [27] = second compound 10 µM, first compound 0.316 µM
# [28] = second compound 10 µM, first compound 1 µM
# [29] = second compound 10 µM, first compound 3.16 µM
# [30] = second compound 10 µM, first compound 10 µM
# [31] = second compound 0.1 µM, first compound 0.00949 µM
# [32] = second compound 0.1 µM, first compound 0.03 µM
# [33] = second compound 0.1 µM, first compound 0.0949 µM
# [34] = second compound 0.1 µM, first compound 0.3 µM
# [35] = second compound 0.316 µM, first compound 0.00949 µM
# [36] = second compound 0.316 µM, first compound 0.03 µM
# [37] = second compound 0.316 µM, first compound 0.0949 µM
# [38] = second compound 0.316 µM, first compound 0.3 µM
# [39] = second compound 1 µM, first compound 0.00949 µM
# [40] = second compound 1 µM, first compound 0.03 µM
# [41] = second compound 1 µM, first compound 0.0949 µM
# [42] = second compound 1 µM, first compound 0.3 µM
# [43] = second compound 3.16 µM, first compound 0.00949 µM
# [44] = second compound 3.16 µM, first compound 0.03 µM
# [45] = second compound 3.16 µM, first compound 0.0949 µM
# [46] = second compound 3.16 µM, first compound 0.3 µM
# [47] = second compound 10 µM, first compound 0.00949 µM
# [48] = second compound 10 µM, first compound 0.03 µM
# [49] = second compound 10 µM, first compound 0.0949 µM
# [50] = second compound 10 µM, first compound 0.3 µM
# 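Also: spheroids exposed to agents for seven days before viability read.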
smiles,measurement,setting,value
CC1(C)CCC(CN2CCN(c3ccc(C(=O)NS(=O)(=O)c4ccc(NCC5CCOCC5)c([N+](=O)[O-])c4)c(Oc4cnc5[nH]ccc5c4)c3)CC2)=C(c2ccc(Cl)cc2)C1 + Cc1cncc(-c2nc(NCCc3c[nH]c4ccccc34)c3ncn(C(C)C)c3n2)c1,IC50,second compound 0.1 µM,> 10 µM
same,IC50,second compound 0.316 µM,> 10 µM
same,IC50,second compound 1 µM,> 10 µM
same,IC50,second compound 3.16 µM,> 10 µM
same,IC50,second compound 10 µM,< 0.0316 µM
same,"viability, T/C",[1],108%
same,"viability, T/C",[2],80.3%
same,"viability, T/C",[3],109%
same,"viability, T/C",[4],93%
same,"viability, T/C",[5],109%
same,"viability, T/C",[6],117%
same,"viability, T/C",[7],94.2%
same,"viability, T/C",[8],96.9%
same,"viability, T/C",[9],136%
same,"viability, T/C",[10],87.7%
same,"viability, T/C",[11],86.6%
same,"viability, T/C",[12],114%
same,"viability, T/C",[13],112%
same,"viability, T/C",[14],123%
same,"viability, T/C",[15],131%
same,"viability, T/C",[16],107%
same,"viability, T/C",[17],103%
same,"viability, T/C",[18],130%
same,"viability, T/C",[19],106%
same,"viability, T/C",[20],93.5%
same,"viability, T/C",[21],115%
same,"viability, T/C",[22],102%
same,"viability, T/C",[23],112%
same,"viability, T/C",[24],106%
same,"viability, T/C",[25],13.5%
same,"viability, T/C",[26],8.66%
same,"viability, T/C",[27],11.9%
same,"viability, T/C",[28],7.88%
same,"viability, T/C",[29],9.07%
same,"viability, T/C",[30],12.5%
CC1COCCN1c1cc(C2(S(C)(=N)=O)CC2)nc(-c2ccnc3[nH]ccc23)n1 (stereo not given) + Cc1cncc(-c2nc(NCCc3c[nH]c4ccccc34)c3ncn(C(C)C)c3n2)c1,IC50,second compound 0.1 µM,> 10 µM
same,IC50,second compound 0.316 µM,> 10 µM
same,IC50,second compound 1 µM,> 10 µM
same,IC50,second compound 3.16 µM,> 10 µM
same,IC50,second compound 10 µM,< 0.0316 µM
same,"viability, T/C",[1],112%
same,"viability, T/C",[2],126%
same,"viability, T/C",[3],90.9%
same,"viability, T/C",[4],93.4%
same,"viability, T/C",[5],93.2%
same,"viability, T/C",[6],74.2%
same,"viability, T/C",[7],98.4%
same,"viability, T/C",[8],127%
same,"viability, T/C",[9],127%
same,"viability, T/C",[10],110%
same,"viability, T/C",[11],70.2%
same,"viability, T/C",[12],86.7%
same,"viability, T/C",[13],111%
same,"viability, T/C",[14],109%
same,"viability, T/C",[15],108%
same,"viability, T/C",[16],96.4%
same,"viability, T/C",[17],87.5%
same,"viability, T/C",[18],73.5%
same,"viability, T/C",[19],80.5%
same,"viability, T/C",[20],92.5%
same,"viability, T/C",[21],89.8%
same,"viability, T/C",[22],109%
same,"viability, T/C",[23],87.1%
same,"viability, T/C",[24],81.1%
same,"viability, T/C",[25],8.69%
same,"viability, T/C",[26],13.3%
same,"viability, T/C",[27],17.8%
same,"viability, T/C",[28],14.7%
same,"viability, T/C",[29],8.67%
same,"viability, T/C",[30],5.3%
CCN(c1cc(-c2ccc(CN3CCOCC3)cc2)cc(C(=O)NCc2c(C)cc(C)[nH]c2=O)c1C)C1CCOCC1 + Cc1cncc(-c2nc(NCCc3c[nH]c4ccccc34)c3ncn(C(C)C)c3n2)c1,IC50,second compound 0.1 µM,> 3 µM
same,IC50,second compound 0.316 µM,> 3 µM
same,IC50,second compound 1 µM,> 3 µM
same,IC50,second compound 3.16 µM,> 3 µM
same,IC50,second compound 10 µM,< 0.00949 µM
same,"viability, T/C",[31],106%
same,"viability, T/C",[32],135%
same,"viability, T/C",[33],123%
same,"viability, T/C",[34],104%
same,"viability, T/C","second compound 0.1 µM, first compound 0.949 µM",106%
same,"viability, T/C","second compound 0.1 µM, first compound 3 µM",156%
same,"viability, T/C",[35],94.5%
same,"viability, T/C",[36],89.3%
same,"viability, T/C",[37],112%
same,"viability, T/C",[38],105%
same,"viability, T/C","second compound 0.316 µM, first compound 0.949 µM",109%
same,"viability, T/C","second compound 0.316 µM, first compound 3 µM",112%
same,"viability, T/C",[39],83.9%
same,"viability, T/C",[40],118%
same,"viability, T/C",[41],117%
same,"viability, T/C",[42],109%
same,"viability, T/C","second compound 1 µM, first compound 0.949 µM",94%
same,"viability, T/C","second compound 1 µM, first compound 3 µM",108%
same,"viability, T/C",[43],102%
same,"viability, T/C",[44],102%
same,"viability, T/C",[45],124%
same,"viability, T/C",[46],86.3%
same,"viability, T/C","second compound 3.16 µM, first compound 0.949 µM",110%
same,"viability, T/C","second compound 3.16 µM, first compound 3 µM",93.8%
same,"viability, T/C",[47],12.1%
same,"viability, T/C",[48],15.5%
same,"viability, T/C",[49],15.5%
same,"viability, T/C",[50],17.9%
same,"viability, T/C","second compound 10 µM, first compound 0.949 µM",8.72%
same,"viability, T/C","second compound 10 µM, first compound 3 µM",7.72%
Nc1ncn(C2CC(O)C(CO)S2)c(=O)n1 (stereo not given) + Cc1cncc(-c2nc(NCCc3c[nH]c4ccccc34)c3ncn(C(C)C)c3n2)c1,IC50,second compound 0.1 µM,> 0.3 µM
same,IC50,second compound 0.316 µM,> 0.3 µM
same,IC50,second compound 1 µM,> 0.3 µM
same,IC50,second compound 3.16 µM,> 0.3 µM
same,IC50,second compound 10 µM,< 0.000949 µM
same,"viability, T/C","second compound 0.1 µM, first compound 0.000949 µM",122%
same,"viability, T/C","second compound 0.1 µM, first compound 0.003 µM",113%
same,"viability, T/C",[31],122%
same,"viability, T/C",[32],95.6%
same,"viability, T/C",[33],118%
same,"viability, T/C",[34],126%
same,"viability, T/C","second compound 0.316 µM, first compound 0.000949 µM",113%
same,"viability, T/C","second compound 0.316 µM, first compound 0.003 µM",102%
same,"viability, T/C",[35],114%
same,"viability, T/C",[36],99%
same,"viability, T/C",[37],129%
same,"viability, T/C",[38],130%
same,"viability, T/C","second compound 1 µM, first compound 0.000949 µM",92.1%
same,"viability, T/C","second compound 1 µM, first compound 0.003 µM",134%
same,"viability, T/C",[39],103%
same,"viability, T/C",[40],111%
same,"viability, T/C",[41],131%
same,"viability, T/C",[42],126%
same,"viability, T/C","second compound 3.16 µM, first compound 0.000949 µM",113%
same,"viability, T/C","second compound 3.16 µM, first compound 0.003 µM",99.5%
same,"viability, T/C",[43],130%
same,"viability, T/C",[44],98.2%
same,"viability, T/C",[45],94.9%
same,"viability, T/C",[46],120%
same,"viability, T/C","second compound 10 µM, first compound 0.000949 µM",12.2%
same,"viability, T/C","second compound 10 µM, first compound 0.003 µM",16.9%
same,"viability, T/C",[47],9.06%
same,"viability, T/C",[48],13.4%
same,"viability, T/C",[49],11.2%
same,"viability, T/C",[50],10.7%
